According to patent US20090197811A1, “ORALLY ADMINISTERED PEPTIDES TO IMPROVE OR PREVENT HEPATIC FIBROSIS” (University of Southern California, priority 2007, published 2009):
Non-standard residues stand in square brackets, D forms with d.

Experiments:
Format in all cases: in vivo, mouse
C57Bl/6J mice [1] = test: Western diet model: α-smooth muscle actin staining of liver sections; details: mice on the Western diet treated with D-4F (FIG. 4E)
Procedure: (§1) Studies were performed in male C5713L/6J mice (Jackson Laboratories, Bar Harbor Me.). Six groups were studied (n=3-5, see FIG. 1) with 4 mice per group at the outset, except for group 2, which was started with n=5; 1 mouse died in group 1. Groups 1, 2, and 3 received the Western diet for 9.5 months; during the last 2.5 months of the 9.5 months, group 2 received SR141716 10 mg/kg/day i.g., and group 3 received D-4F, 125 μg/mouse/day, in the drinking water. Groups 4, 5, and 6 received the Western diet for 7 months followed by standard chow for 2.5 months; during the 2.5 months on standard chow, group 5 received SR141716 and group 6 received D-4F as described for groups 2 and 3, respectively. Additional control groups were studied: 6-month old C57Bl/6J mice as age-matched controls (n=5) and C57Bl/6J mice that received the Western diet for 6 months (n=6).
Sections of formalin-fixed, paraffin-embedded liver, 7 μm thick, were used for α-smooth muscle actin immunofluorescence staining. Slides were deparaffinized in xylene and serially rehydrated in graded ethanol (100-70%). Slides were treated with 0.1 M tris-HCl (pH 7.6)/0.05 Tween-20 for 5 min, incubated with 1 μg/ml proteinase K (Sigma, St Louis Mo.)) for 15 min at room temperature, and then rinsed in water for 10 min. […]

C57Bl/6J mice [2] = test: Western diet model: fibrosis by Sirius red whole-section-scanning morphometric image analysis
Procedure: as §1
Sirius red staining was performed by the Morphology core of the USC-UCLA Research Center for Alcoholic Liver and Pancreatic Diseases. α-Smooth muscle actin.
Tissue sections stained with Sirius red were scanned by a third-generation Automated Cellular Imaging System (ACIS III), a highly automated microscope-based digital imaging system (Carl Zeiss MicroImaging AIS Inc., Aliso Viejo Calif.). The color of the Sirius red staining in the digitized tissue sections was determined and applied to a pre-existing algorithm that provides the area of a target color in μm^2. The outline of each digitized tissue section was manually traced using the computer's mouse. Areas of large portal tracts and central veins were also outlined manually. The total area (μm^2) of each tissue section and of the total area of large portal tracts and central veins were determined by the image analysis system. The area of fibrosis was calculated as [total area stained by Sirius red minus perivascular staining] as a percentage of the size of the tissue section. This method has the advantage of scanning the entire section, rather than measuring fibrosis in randomly chosen fields.

C57Bl/6J mice [3] = test: Western diet model: biochemical findings and liver and body weights; details: for GSH / TBARS: liver; for ALT / AST / Adiponectin / Cholesterol / Glucose / Insulin / Leptin / Triglycerides: serum
Procedure: SR141716 was a kind gift from Sanofi-Aventis, France. SR141716 was dissolved in water with 0.1% Tween and given daily by gavage for 10 weeks. D-4F is an 18-mer of D-amino acids (Ac-D-W-F-K-A-F-Y-D-K-V-A-E-K-F-K-E-A-F-NH2)^4 (SEQ ID NO: 1) that was commercially synthesized (A & A Laboratories, San Diego Calif.) with 80% purity. D-4F was dissolved in the drinking water at a concentration of 60 μg/ml water for a calculated dose corrected for drug purity of 125 μg D-4F/mouse/day.
The high fat diet used was the RD “Western diet” (Research Diets, D12079B), which contains 41% of calories from fat, 43% calories from carbohydrate, and 17% of calories from protein); this diet was designed to approximate the “typical” human diet of North America and Europe.
as §1
Serum aspartate amino transferase (AST) and alanine aminotransferase (ALT) were measured with the Infinity AST and ALT liquid assay reagent (Thermo Electron Corporation, Louisville Colo., cat #TR70121 and TR71121). Serum triglycerides and cholesterol were measured with the Infinity cholesterol assay reagent (Thermo Electron Corporation, Louisville Colo., cat #TR22321 and TR13315). Serum glucose was measured with the Glucose (HK) assay kit (Sigma, St. Louis, Mo., cat #GAHK-20). Serum insulin was measured with the Mercodia Ultrasensitive mouse insulin ELISA kit (ALPCO Diagnostics, Salem N.H., cat #10 1150-01). The homeostasis model assessment insulin resistance index (HOMA-IR) was calculated as [fasting glucose (mmol/liter)*fasting insulin (microunits/ml)]/22.5^17, 18. Serum leptin was measured with the TiterZyme EIA mouse leptin kit (Assay Designs Inc, Ann Arbor Mich., cat #900-019). Serum adiponectin was measured with the mouse adiponectin kit (Biovendor LLC, Candler N.C., cat #RD 293023100). Thiobarbituric acid reactive substance (TBARS) was measured as previously described^19, 20; in brief, liver was homogenized and diluted 1:1 in 10% ice cold trichloroacetic acid. 0.5 ml supernatant or of a standard solution of 1,1,3,3-tetraethoxypropane was mixed with 0.5 ml of 0.6% (w/v) 4,6-dihydroxy-2-thiopyrimidine. The solution was boiled for 30 min, cooled and centrifuged. Absorbance was measured at 532 nm with a Shimadzu TV-2101 PC spectrophotometer. To measure hepatic glutathione (GSH), liver was homogenized and diluted 1:1 in 10% ice cold trichloroacetic acid. GSH in the supernatant was measured according to the recycling assay of Tietze^21.

[4] = 7 months Western diet followed by 2.5 months Western diet + drug
[5] = 7 months Western diet followed by 2.5 months chow + drug
[6] = group 3 vs group 1, Western diet 9.5 months, D-4F last 2.5 months

Substance: Ac-D-W-F-K-A-F-Y-D-K-V-A-E-K-F-K-E-A-F-NH2 (Ac-[dD][dW][dF][dK][dA][dF][dY][dD][dK][dV][dA][dE][dK][dF][dK][dE][dA][dF]-NH2; not fully specified; printed as Ac-D-W-F-K-A-F-Y-D-K-V-A-E-K-F-K-E-A-F-NH2) [D-4F]
- activated stellate cells in liver sections (α-smooth muscle actin staining) (C57Bl/6J mice [1]): decrease in activated stellate cells
- fibrosis (surface area positive for Sirius red staining) (C57Bl/6J mice [2]; group 3: Western diet 9.5 months, D-4F 125 μg/mouse/day in drinking water last 2.5 months, group 1 without drug 4.6±1.9%): 1.25%
- fibrosis (surface area positive for Sirius red staining) (C57Bl/6J mice [2]; group 6: 7 months Western diet, then 2.5 months chow plus D-4F, group 4 chow alone 2.8±0.7%): 0.9±0.2%
- progression of fibrosis after onset of steatohepatitis (C57Bl/6J mice [2]; summary statement): prevented progression of fibrosis
- Body weight (C57Bl/6J mice [3]; [4]): 39.5 ± 0.8 g
- HOMA-IR (C57Bl/6J mice [3]; [4]): 63.3 ± 23.5
- Liver weight (C57Bl/6J mice [3]; [4]): 2.42 ± 0.04 g
- Body weight (C57Bl/6J mice [3]; [5]): 35.9 ± 3.2 g
- HOMA-IR (C57Bl/6J mice [3]; [5]): 16.5 ± 2.2
- Liver weight (C57Bl/6J mice [3]; [5]): 1.67 ± 0.19 g
- body weight, liver weight, serum transaminases, hyperglycemia, hyperinsulinemia, insulin resistance, overall hepatic oxidative stress (C57Bl/6J mice [3]; [6]): no improvement
- leptin levels compared to mice on Western diet alone (C57Bl/6J mice [3]; [6]): decreased by half
- total cholesterol compared to mice on Western diet alone (C57Bl/6J mice [3]; [6]): decreased by half
- GSH (C57Bl/6J mice [3]; [4]): 50.1 ± 5.8 nmole/mg protein
- TBARS (C57Bl/6J mice [3]; [4]): 29.4 ± 2.4 nmol/g tissue
- GSH (C57Bl/6J mice [3]; [5]): 82.8 ± 5.2 nmole/mg protein
- TBARS (C57Bl/6J mice [3]; [5]): 20.0 ± 0.6 nmol/g tissue
- ALT (C57Bl/6J mice [3]; [4]): 277.3 ± 18.2 U/L
- AST (C57Bl/6J mice [3]; [4]): 211.9 ± 19.1 U/L
- Adiponectin (C57Bl/6J mice [3]; [4]): 15.3 ± 1.0 µg/mL
- Cholesterol (C57Bl/6J mice [3]; [4]): 146.8 ± 2.1 mg/dL
- Glucose (C57Bl/6J mice [3]; [4]): 231.2 ± 18.0 mg/dL
- Insulin (C57Bl/6J mice [3]; [4]): 3.7 ± 1.1 ng/mL
- Leptin (C57Bl/6J mice [3]; [4]): 17.49 ± 1.41 ng/mL
- Triglycerides (C57Bl/6J mice [3]; [4]): 40.0 ± 6.7 mg/dL
- ALT (C57Bl/6J mice [3]; [5]): 69.1 ± 21.5 U/L
- AST (C57Bl/6J mice [3]; [5]): 104.2 ± 22.4 U/L
- Adiponectin (C57Bl/6J mice [3]; [5]): 18.52 ± 1.5 µg/mL
- Cholesterol (C57Bl/6J mice [3]; [5]): 120.8 ± 2.9 mg/dL
- Glucose (C57Bl/6J mice [3]; [5]): 159.2 ± 2.4 mg/dL
- Insulin (C57Bl/6J mice [3]; [5]): 1.46 ± 0.2 ng/mL
- Leptin (C57Bl/6J mice [3]; [5]): 8.70 ± 1.43 ng/mL
- Triglycerides (C57Bl/6J mice [3]; [5]): 49.1 ± 1.4 mg/dL
